≈ marks a conversion by molar mass, not a printed value.
Legend:
[1] = Thermodynamic solubility (shake-flask); assay type: physicochemical; conditions: aqueous phosphate buffer, 25 °C, pH 7.4, aqueous buffer, thermodynamic from solid, phosphate buffer pH 7.4, 24 hours
[2] = target: recombinant human Estrogen Receptor alpha ligand binding domain (ER alpha-LBD (GST)) (Homo sapiens (Human), UniProt P03372); assay: ERα binding assay (LanthaScreen TR-FRET competition)
Experimental: The ability of compounds to bind to isolated Estrogen Receptor Alpha Ligand binding domain (ER alpha—LBD (GST)) was assessed in competition assays using a LanthaScreen Time-Resolved Fluorescence Resonance Energy Transfer (TR-FRET) detection end-point. For the LanthaScreen TR-FRET endpoint, a suitable fluorophore (Fluormone ES2, ThermoFisher, Product code P2645) and recombinant human Estrogen Receptor alpha ligand binding domain, residues 307-554 (expressed and purified in-house) were used to measure compound binding. The assay principle is that ER alpha-LBD (GST) is added to a fluorescent ligand to form a receptor/fluorophore complex. A terbium-labelled anti-GST antibody (Product code PV3551) is used to indirectly label the receptor by binding to its GST tag, and competitive binding is detected by a test compound's ability to displace the fluorescent ligand, resulting in a loss of TR-FRET signal between the Tb-anti-GST antibody and the tracer. The assay was performed as follows with all reagent additions carried out using the Beckman Coulter BioRAPTR FRD microfluidic workstation: • 1. Acoustic dispense 120 nL of the test compound into a black low volume 384 well assay plates. • 2. Prepare 1× ER alpha-LBD/Tb-antiGST Ab in ES2 screening buffer and incubate for 15 minutes. • 3. […] Cover the assay plate to protect the reagents from light and evaporation, and incubate at room temperature for 4 hours. • 5. Excite at 337 nm and measure the fluorescent emission signal of each well at 490 nm and 520 nm using the BMG PheraSTAR.
TR-FRET dose response data obtained with each compound was exported into a suitable software package (such as Origin or Genedata) to perform curve fitting analysis. Competitive ER alpha binding was expressed as an IC50 value.

[3] = target: Estrogen Receptor (ERα) in MCF-7 cells (Homo sapiens (Human), UniProt P03372); assay: MCF-7 ER down-regulation assay (immuno-fluorescence); assay type: cell-based
Chain of Estrogen Receptor (ERα) in MCF-7 cells (P03372 whole entry): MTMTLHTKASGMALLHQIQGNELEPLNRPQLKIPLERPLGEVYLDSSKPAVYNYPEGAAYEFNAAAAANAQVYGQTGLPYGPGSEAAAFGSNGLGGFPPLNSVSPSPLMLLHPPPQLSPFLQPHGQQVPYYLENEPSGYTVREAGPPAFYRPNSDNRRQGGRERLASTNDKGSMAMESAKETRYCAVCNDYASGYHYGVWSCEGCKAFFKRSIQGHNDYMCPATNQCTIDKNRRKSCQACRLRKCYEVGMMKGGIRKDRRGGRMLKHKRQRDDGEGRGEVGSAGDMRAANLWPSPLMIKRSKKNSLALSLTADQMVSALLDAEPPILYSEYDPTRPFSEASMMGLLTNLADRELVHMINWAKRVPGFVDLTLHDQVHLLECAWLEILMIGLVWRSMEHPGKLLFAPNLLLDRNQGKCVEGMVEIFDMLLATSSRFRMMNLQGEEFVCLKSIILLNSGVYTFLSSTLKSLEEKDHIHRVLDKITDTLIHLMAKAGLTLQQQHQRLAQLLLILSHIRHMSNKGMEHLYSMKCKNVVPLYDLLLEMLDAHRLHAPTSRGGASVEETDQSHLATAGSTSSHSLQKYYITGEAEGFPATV
Experimental: The ability of compounds to down-regulate Estrogen Receptor (ER) numbers was assessed in a cell based immuno-fluorescence assay using the MCF-7 human ductal carcinoma breast cell line. MCF-7 cells were revived directly from a cryovial (approx 5×10^6 cells) in Assay Medium (phenol red free Dulbecco's Modified Eagle's medium (DMEM); Sigma D5921) containing 2 mM L-Glutamine and 5% (v/v) Charcoal/Dextran treated foetal calf serum. Cells were syringed once using a sterile 18G×1.5 inch (1.2×40 mm) broad gauge needle and cell density was measured using a Coulter Counter (Beckman). […] Following cell seeding, plates were incubated overnight at 37° C., 5% CO2 (Liconic carousel incubator). Test data was generated using the LabCyte Echomodel 555 compound reformatter which is part of an automated workcell (Integrated Echo 2 workcell). Compound stock solutions (10 mM) of the test compounds were used to generate a 384 well compound dosing plate (Labcyte P-05525-CV1). […] 40 μL of DMSO added to wells in row P on the source plate allowed for DMSO normalisation across the dose range. To dose the control wells 40 μL of DMSO was added to row O1 and 40 μL of 100 μM fulvestrant in DMSO was added to row O3 on the compound source plate.
The Echo uses acoustic technology to perform direct microplate-to-microplate transfers of DMSO compound solutions to assay plates. The system can be programmed to transfer volumes as low as 2.5 nL in multiple increments between microplates and in so doing generates a serial dilution of compound in the assay plate which is then back-filled to normalise the DMSO concentration across the dilution range. […] The fixing method described above was carried out on the Integrated Echo 2 workcell. Immunostaining was performed using an automated AutoElisa workcell. The PBS/Proclin was aspirated from all wells and the cells permeabilised with 40 μL PBS containing 0.5% Tween™ 20 (v/v) for 1 hour at room temperature. The plates were washed three times in 250 μL of PBS/0.05% (v/v) Tween 20 with Proclin (PBST with a Biocide preservative) and then 20 μL of ERα (SP1) Rabbit monoclonal antibody (Thermofisher) 1:1000 in PBS/Tween™/3% (w/v) Bovine Serum Albumin was added. The plates were incubated overnight at 4° C. (Liconic carousel incubator) and then washed three times in 250 μL of PBS/0.05% (v/v) Tween™ 20 with Proclin (PBST). The plates were then incubated with 20 μL/well of a goat anti-rabbit IgG AlexaFluor 594 or goat anti-rabbit AlexaFluor 488 antibody (Molecular Probes) with Hoechst at 1:5000 in PBS/Tween™/3% (w/v) Bovine Serum Albumin for 1 hour at room temperature. The plates were then washed three times in 250 μL of PBS/0.05% (v/v) Tween™ 20 with Proclin (PBST with a Biocide preservative). 20 μL of PBS was added to each well and the plates covered with a black plate seal and stored at 4° C. before being read. […] The mean total intensity was normalized for cell number giving the total intensity per cell. The data was exported into a suitable software package (such as Origin) to perform curve fitting analysis.

Chain of recombinant human Estrogen Receptor alpha ligand binding domain (ER alpha-LBD (GST)) (P03372 307-554): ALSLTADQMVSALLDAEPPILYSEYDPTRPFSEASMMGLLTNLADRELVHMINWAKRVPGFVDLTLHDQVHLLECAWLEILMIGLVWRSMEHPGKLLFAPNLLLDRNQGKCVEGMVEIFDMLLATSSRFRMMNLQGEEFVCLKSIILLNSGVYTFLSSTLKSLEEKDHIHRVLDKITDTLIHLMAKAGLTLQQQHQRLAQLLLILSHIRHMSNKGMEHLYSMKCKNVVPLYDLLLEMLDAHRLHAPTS

Row | Compound | solubility at 24 h [1] | IC50 [2] | IC50 [3] | % downregulation (in brackets) ([3]; maximum downregulation)
1 | Cc1c(OCCNCCCF)ccc(F)c1[C@@H]1c2[nH]c3ccccc3c2C[C@@H](C)N1CCC(=O)O [Example 116, 3-((1R,3R)-1-(6-fluoro-3-(2-((3-fluoropropyl)amino)ethoxy)-2-methylphenyl)-3-methyl-1,3,4,9-tetrahydro-2H-pyrido[3,4-b]indol-2-yl)propanoic acid] | > 1000 µM |  |  | 
2 | C[C@@H]1Cc2c([nH]c3ccc(F)cc23)[C@@H](c2c(F)ccc(OCCNCCCF)c2F)N1C[C@H](C)C(=O)O [Example 59, (S)-3-((1R,3R)-1-(2,6-difluoro-3-(2-((3-fluoropropyl)amino)ethoxy)phenyl)-6-fluoro-3-methyl-1,3,4,9-tetrahydro-2H-pyrido[3,4-b]indol-2-yl)-2-methylpropanoic acid] |  | 2.3 nM | 3.1 nM | 
3 | Cc1c(OCCNCCCF)ccc(F)c1[C@@H]1c2[nH]c3ccccc3c2C[C@@H](C)N1CC(F)(F)CO [Example 45, 2,2-difluoro-3-((1R,3R)-1-(6-fluoro-3-(2-((3-fluoropropyl)amino)ethoxy)-2-methylphenyl)-3-methyl-1,3,4,9-tetrahydro-2H-pyrido[3,4-b]indol-2-yl)propan-1-ol] | 227 µM (≈ 115 µg/mL) |  |  | 
4 | Cc1c(OCCNCCCF)ccc(F)c1[C@@H]1c2[nH]c3ccccc3c2C[C@@H](C)N1CC1(C(=O)O)CCC1 [Example 120] |  | 11 nM | 2.5 nM | 
5 | Cc1c(OCCN(C)CCCF)ncc(F)c1[C@@H]1c2[nH]c3ccc(F)cc3c2C[C@@H](C)N1CCC(=O)O [Example 156, 3-((1R,3R)-6-fluoro-1-(5-fluoro-2-(2-((3-fluoropropyl)(methyl)amino)ethoxy)-3-methylpyridin-4-yl)-3-methyl-1,3,4,9-tetrahydro-2H-pyrido[3,4-b]indol-2-yl)propanoic acid] |  | 1.2 nM | 1.4 nM | 
6 | Cc1c(OCCN(C)CCCF)ccc(F)c1[C@@H]1c2[nH]c3ccc(F)cc3c2C[C@@H](C)N1C[C@@H](C)C(=O)O [Example 160, (R)-3-((1R,3R)-6-fluoro-1-(6-fluoro-3-(2-((3-fluoropropyl)(methyl)amino)ethoxy)-2-methylphenyl)-3-methyl-1,3,4,9-tetrahydro-2H-pyrido[3,4-b]indol-2-yl)-2-methylpropanoic acid] |  | 1.9 nM | 0.36 nM | 
7 | C[C@@H]1Cc2c([nH]c3ccccc23)[C@@H](c2c(F)cnc(OCCNCCCF)c2Cl)N1C[C@H](C)C(=O)O [Example 133, (S)-3-((1R,3R)-1-(3-chloro-5-fluoro-2-(2-((3-fluoropropyl)amino)ethoxy)pyridin-4-yl)-3-methyl-1,3,4,9-tetrahydro-2H-pyrido[3,4-b]indol-2-yl)-2-methylpropanoic acid] |  | 1.5 nM | 1.5 nM | 
8 | C[C@@H](CN1[C@H](c2c(F)ccc(OCCNCCCF)c2Cl)c2[nH]c3ccccc3c2C[C@H]1C(F)F)C(=O)O [Example 138, (S)-3-((1R,3S)-1-(2-chloro-6-fluoro-3-(2-((3-fluoropropyl)amino)ethoxy)phenyl)-3-(difluoromethyl)-1,3,4,9-tetrahydro-2H-pyrido[3,4-b]indol-2-yl)-2-methylpropanoic acid] |  | 1.6 nM | 1.6 nM | 
9 | Cc1c(OCCN(C)CCCF)ncc(F)c1[C@@H]1c2[nH]c3ccc(F)cc3c2C[C@@H](C)N1C[C@@H](C)C(=O)O [Example 155, (2R)-3-[(1R,3R)-6-fluoro-1-[5-fluoro-2-[2-[3-fluoropropyl(methyl)amino]ethoxy]-3-methyl-4-pyridyl]-3-methyl-1,3,4,9-tetrahydropyrido[3,4-b]indol-2-yl]-2-methyl-propanoic acid] |  | 1 nM | 0.21 nM | 
10 | CC[C@@H]1Cc2c([nH]c3ccccc23)[C@@H](c2c(F)ccc(OCCNCCCF)c2C)N1C[C@H](C)C(=O)O [Example 122, (S)-3-((1R,3R)-3-ethyl-1-(6-fluoro-3-(2-((3-fluoropropyl)amino)ethoxy)-2-methylphenyl)-1,3,4,9-tetrahydro-2H-pyrido[3,4-b]indol-2-yl)-2-methylpropanoic acid] |  | 4.9 nM | 0.39 nM | 
11 | Cc1ccc(OCCNCCCF)c(F)c1[C@@H]1c2[nH]c3ccccc3c2C[C@@H](C)N1CC(F)(F)F [Example 80, 3-fluoro-N-(2-(2-fluoro-4-methyl-3-((1R,3R)-3-methyl-2-(2,2,2-trifluoroethyl)-2,3,4,9-tetrahydro-1H-pyrido[3,4-b]indol-1-yl)phenoxy)ethyl)propan-1-amine] | 13 µM (≈ 6.44 µg/mL) |  |  | 
12 | C[C@@H]1Cc2c([nH]c3ccccc23)[C@@H](c2cccc(OCCNCCCF)c2F)N1CC(F)(F)F [Example 24, 3-fluoro-N-(2-(2-fluoro-3-((1R,3R)-3-methyl-2-(2,2,2-trifluoroethyl)-2,3,4,9-tetrahydro-1H-pyrido[3,4-b]indol-1-yl)phenoxy)ethyl)propan-1-amine] | 88 µM (≈ 42.4 µg/mL) |  |  | 
13 | C[C@@H]1Cc2c([nH]c3ccccc23)[C@@H](c2cc(F)cc(OCCNCCCF)c2)N1CC(F)(F)F [Example 73, 3-fluoro-N-(2-(3-fluoro-5-((1R,3R)-3-methyl-2-(2,2,2-trifluoroethyl)-2,3,4,9-tetrahydro-1H-pyrido[3,4-b]indol-1-yl)phenoxy)ethyl)propan-1-amine] | 7 µM (≈ 3.37 µg/mL) |  |  | 
14 | Cc1c(OCCN(C)CCCF)ncc(F)c1[C@@H]1c2[nH]c3ccccc3c2C[C@@H](C)N1CCC(=O)O [Example 157, 3-((1R,3R)-1-(5-fluoro-2-(2-((3-fluoropropyl)(methyl)amino)ethoxy)-3-methylpyridin-4-yl)-3-methyl-1,3,4,9-tetrahydro-2H-pyrido[3,4-b]indol-2-yl)propanoic acid] |  | 1.8 nM | 1 nM | 
15 | Cc1c(OCCNCCCF)ccc(F)c1[C@@H]1c2[nH]c3ccccc3c2C[C@@H](C)N1CC(C)(C)C(=O)O [Example 119, 3-((1R,3R)-1-(6-fluoro-3-(2-((3-fluoropropyl)amino)ethoxy)-2-methylphenyl)-3-methyl-1,3,4,9-tetrahydro-2H-pyrido[3,4-b]indol-2-yl)-2,2-dimethyl-propanoic acid] |  | 6.9 nM | 1 nM | 
16 | COc1ccc(OCCNCCCF)cc1[C@@H]1c2[nH]c3ccccc3c2C[C@@H](C)N1CC1(F)CC1 [Example 52, 3-fluoro-N-(2-(3-((1R,3R)-2-((1-fluorocyclopropyl)methyl)-3-methyl-2,3,4,9-tetrahydro-1H-pyrido[3,4-b]indol-1-yl)-4-methoxyphenoxy)ethyl)propan-1-amine] |  | 0.58 nM | 0.34 nM | 
17 | C[C@@H](CN1[C@H](c2c(F)cnc(OCCNCCCF)c2Cl)c2[nH]c3ccccc3c2C[C@H]1C(F)F)C(=O)O [Example 139, (S)-3-((1R,3S)-1-(3-chloro-5-fluoro-2-(2-((3-fluoropropyl)amino)ethoxy)pyridin-4-yl)-3-(difluoromethyl)-1,3,4,9-tetrahydro-2H-pyrido[3,4-b]indol-2-yl)-2-methylpropanoic acid] |  | 1.5 nM | 0.9 nM | 
18 | Cc1c(OCCN(C)CCCF)ccc(F)c1[C@@H]1c2[nH]c3ccc(F)cc3c2C[C@@H](C)N1C[C@H](C)C(=O)O [Example 146, (S)-3-((1R,3R)-6-fluoro-1-(6-fluoro-3-(2-((3-fluoropropyl)(methyl)amino)ethoxy)-2-methylphenyl)-3-methyl-1,3,4,9-tetrahydro-2H-pyrido[3,4-b]indol-2-yl)-2-methylpropanoic acid] |  | 1.1 nM | 0.4 nM | 
19 | Cc1ccc([C@@H]2c3[nH]c4ccccc4c3C[C@@H](C)N2CC(F)(F)F)cc1OCCNCCCF [Example 19, 3-fluoro-N-(2-(2-methyl-5-((1R,3R)-3-methyl-2-(2,2,2-trifluoroethyl)-2,3,4,9-tetrahydro-1H-pyrido[3,4-b]indol-1-yl)phenoxy)ethyl)propan-1-amine] | 5 µM (≈ 2.39 µg/mL) |  |  | 
20 | Cc1cc(OCCNCCCF)cc([C@@H]2c3[nH]c4ccccc4c3C[C@@H](C)N2CC(F)(F)F)c1 [Example 18, 3-fluoro-N-(2-(3-methyl-5-((1R,3R)-3-methyl-2-(2,2,2-trifluoroethyl)-2,3,4,9-tetrahydro-1H-pyrido[3,4-b]indol-1-yl)phenoxy)ethyl)propan-1-amine] | 27 µM (≈ 12.9 µg/mL) |  |  | 
21 | C[C@@H]1Cc2c([nH]c3ccccc23)[C@@H](c2c(F)ccc(OCCNCCCF)c2C(F)F)N1C[C@H](C)C(=O)O [Example 125, (S)-3-((1R,3R)-1-(2-(difluoromethyl)-6-fluoro-3-(2-((3-fluoropropyl)amino)ethoxy)phenyl)-3-methyl-1,3,4,9-tetrahydro-2H-pyrido[3,4-b]indol-2-yl)-2-methylpropanoic acid] |  | 1.3 nM | 0.62 nM | 
22 | C[C@@H]1Cc2c([nH]c3ccccc23)[C@@H](c2cccc(NCCNCCCF)c2)N1CC1(F)COC1 [Example 2, N-1-(3-((1R,3R)-2-((3-fluorooxetan-3-yl)methyl)-3-methyl-2,3,4,9-tetrahydro-1H-pyrido[3,4-b]indol-1-yl)phenyl)-N-2-(3-fluoropropyl)ethane-1,2-diamine] | 895 µM (≈ 419 µg/mL) |  |  | 
23 | C[C@@H]1Cc2c([nH]c3ccccc23)[C@@H](c2ccc(F)c(OCCNCCCF)c2)N1CC(F)(F)F [Example 74, 3-fluoro-N-(2-(2-fluoro-5-((1R,3R)-3-methyl-2-(2,2,2-trifluoroethyl)-2,3,4,9-tetrahydro-1H-pyrido[3,4-b]indol-1-yl)phenoxy)ethyl)propan-1-amine] | 0.9 µM (≈ 0.433 µg/mL) |  |  | 
24 | C[C@@H]1Cc2c([nH]c3ccccc23)[C@@H](c2cccc(N(C)CCNCCCF)c2)N1CC1(F)COC1 [Example 3, N-1-(3-((1R,3R)-2-((3-fluorooxetan-3-yl)methyl)-3-methyl-2,3,4,9-tetrahydro-1H-pyrido[3,4-b]indol-1-yl)phenyl)-N-2-(3-fluoropropyl)-N-1-methylethane-1,2-diamine] | 712 µM (≈ 344 µg/mL) |  |  | 
25 | C[C@@H]1Cc2c([nH]c3ccccc23)[C@@H](c2c(F)ccc(OCCN(C)CCCF)c2F)N1C[C@H](C)C(=O)O [Example 144, (S)-3-((1R,3R)-1-(2,6-difluoro-3-(2-((3-fluoropropyl)(methyl)amino)ethoxy)phenyl)-3-methyl-1,3,4,9-tetrahydro-2H-pyrido[3,4-b]indol-2-yl)-2-methylpropanoic acid] |  | 5.6 nM | 7.9 nM | 88%
